These results are taken from US20080026996A1, “Selective Vpac2 Receptor Reptide Agonists” (ELI LILLY AND COMPANY, priority 2004, published 2008).

One series concerns the target T1, human VPAC2 (Homo sapiens, UniProt P41587).
T1 construct: expressed in transfected cells
T1 sequence (P41587 24-438): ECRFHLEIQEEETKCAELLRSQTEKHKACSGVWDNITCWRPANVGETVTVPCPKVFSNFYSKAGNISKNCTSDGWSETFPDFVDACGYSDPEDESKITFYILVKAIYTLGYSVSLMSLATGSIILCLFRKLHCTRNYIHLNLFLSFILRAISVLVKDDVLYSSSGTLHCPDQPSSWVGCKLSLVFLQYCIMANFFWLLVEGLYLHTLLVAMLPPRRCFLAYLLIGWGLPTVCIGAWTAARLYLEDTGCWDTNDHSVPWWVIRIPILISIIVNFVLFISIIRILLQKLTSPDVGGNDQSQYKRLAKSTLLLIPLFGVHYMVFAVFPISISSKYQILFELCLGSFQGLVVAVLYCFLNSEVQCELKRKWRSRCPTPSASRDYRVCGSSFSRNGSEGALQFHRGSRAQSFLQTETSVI
As to the kind of experiment: Alpha screen cAMP in vitro potency, human VPAC2 receptor. Format: cell-based. To be noted: cAMP generation; single result from two analyses performed in a single run; read-out: Human VPAC2 Receptor: Alpha Screen EC50. The gist of the method:
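Cells were detached with enzyme-free dissociation buffer, washed into stimulation buffer and used at 50,000 cells per data point. Stimuli and AlphaScreen acceptor beads were added for 60 minutes, then lysis buffer with donor beads for 60 to 120 minutes; the AlphaScreen signal reports intracellular cAMP.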

A short description of series [1]: Rat serum stability studies (remaining active peptide by DiscoveRx cAMP on CHO-VPAC2 cells). The class given is in vitro ADME. How it is done: Store the aliquot with aprotinin at 4° C. Store the aliquot without aprotinin at 37° C. […] […] Incubate in room temperature for 30 minutes. Remove the supernatant. […] Incubate on the shaker (300 rpm) for 1 hour. Proceed as normal with the DiscoveRx kit. Include cAMP standards in column 12. Determine EC50 values from the cAMP assay data.

Where a SMILES comes first, the peptide text is derived from it. [ ]: non-standard residue; d: D form. The star is where a group is joined. Orn = NCCC[C@H](N)C(=O)O; Hexanoyl = CCCCCC(=O)*; Aib = CC(C)(N)C(=O)O

Regarding `CCCCCC(=O)N[C@@H](Cc1c[nH]cn1)C(=O)N[C@@H](CO)C(=O)N[C@@H](CC(=O)O)C(=O)N[C@@H](C)C(=O)N[C@H](C(=O)N[C@@H](Cc1ccccc1)C(=O)N[C@H](C(=O)N[C@@H](CC(=O)O)C(=O)N[C@@H](CC(N)=O)C(=O)N[C@@H](Cc1ccc(O)cc1)C(=O)N[C@H](C(=O)N[C@@H](CCCNC(=N)N)C(=O)N[C@@H](CC(C)C)C(=O)N[C@@H](CCCNC(=N)N)C(=O)NC(C)(C)C(=O)N[C@@H](CCC(N)=O)C(=O)N[C@H](C(=O)N[C@@H](C)C(=O)N[C@@H](C)C(=O)NC(C)(C)C(=O)N[C@@H](CCCCN)C(=O)N[C@@H](Cc1ccc(O)cc1)C(=O)N[C@@H](CC(C)C)C(=O)N[C@@H](CCC(N)=O)C(=O)N[C@@H](CO)C(=O)N[C@H](C(=O)N[C@@H](CCCCN)C(=O)N1CCC[C@H]1C(=O)N[C@@H](CCCCN)C(=O)NCC(=O)NCC(=O)N1CCC[C@H]1C(=O)N[C@@H](CO)C(=O)N[C@@H](CO)C(=O)NCC(=O)N[C@@H](C)C(=O)N1CCC[C@H]1C(=O)N1CCC[C@H]1C(=O)N1CCC[C@H]1C(=O)N[C@@H](CO)C(=O)O)[C@@H](C)CC)C(C)C)[C@@H](C)O)[C@@H](C)O)C(C)C` [Agonist P350] (Hexanoyl-HSDAVFTDNYTRLR[Aib]QVAA[Aib]KYLQSIKPKGGPSSGAPPPS-OH; C-terminus assumed), the EC50 at human VPAC2 stood at 0.13 nM. The “Rat Serum Stability (estimated purity in % after 18 hours)” value in series [1] is reported as 25.83%.

Regarding `CCCCCC(=O)N[C@@H](Cc1c[nH]cn1)C(=O)N[C@@H](CO)C(=O)N[C@@H](CC(=O)O)C(=O)N[C@@H](C)C(=O)N[C@H](C(=O)N[C@@H](Cc1ccccc1)C(=O)N[C@H](C(=O)N[C@@H](CC(=O)O)C(=O)N[C@@H](CC(N)=O)C(=O)N[C@@H](Cc1ccc(O)cc1)C(=O)N[C@H](C(=O)N[C@@H](C)C(=O)N[C@@H](CC(C)C)C(=O)N[C@@H](CCCNC(=N)N)C(=O)NC(C)(C)C(=O)N[C@@H](CCC(N)=O)C(=O)N[C@H](C(=O)N[C@@H](C)C(=O)N[C@@H](C)C(=O)NC(C)(C)C(=O)N[C@@H](CCCCN)C(=O)N[C@@H](Cc1ccc(O)cc1)C(=O)N[C@@H](CC(C)C)C(=O)N[C@@H](CCC(N)=O)C(=O)N[C@@H](CO)C(=O)N[C@H](C(=O)N[C@@H](CCCN)C(=O)N[C@@H](CC(N)=O)C(=O)N[C@@H](CCCN)C(=O)NCC(=O)NCC(=O)N1CCC[C@H]1C(=O)N[C@@H](CO)C(=O)N[C@@H](CO)C(=O)NCC(=O)N[C@@H](C)C(=O)N1CCC[C@H]1C(=O)N1CCC[C@H]1C(=O)N1CCC[C@H]1C(=O)N[C@@H](CO)C(=O)O)[C@@H](C)CC)C(C)C)[C@@H](C)O)[C@@H](C)O)C(C)C` [Agonist P366], the EC50 on human VPAC2 is 2.6 nM. In addition, the “Rat Serum Stability (estimated purity in % after 18 hours)” value in series [1] was 92.00%.

As for `CCCCCC(=O)N[C@@H](Cc1c[nH]cn1)C(=O)N[C@@H](CO)C(=O)N[C@@H](CC(=O)O)C(=O)N[C@@H](C)C(=O)N[C@H](C(=O)N[C@@H](Cc1ccccc1)C(=O)N[C@H](C(=O)N[C@@H](CC(=O)O)C(=O)N[C@@H](CC(N)=O)C(=O)N[C@@H](Cc1ccc(O)cc1)C(=O)N[C@H](C(=O)N[C@@H](CCCNC(=N)N)C(=O)N[C@@H](CC(C)C)C(=O)N[C@@H](CCCNC(=N)N)C(=O)NC(C)(C)C(=O)N[C@@H](CCC(N)=O)C(=O)N[C@H](C(=O)N[C@@H](C)C(=O)N[C@@H](C)C(=O)NC(C)(C)C(=O)N[C@@H](CCCCN)C(=O)N[C@@H](Cc1ccc(O)cc1)C(=O)N[C@@H](CC(C)C)C(=O)N[C@@H](CCC(N)=O)C(=O)N[C@@H](CO)C(=O)N[C@H](C(=O)N[C@@H](CCCCN)C(=O)N[C@@H](CCCCN)C(=O)NCC(=O)NCC(=O)N1CCC[C@H]1C(=O)N[C@@H](CO)C(=O)N[C@@H](CO)C(=O)NCC(=O)N[C@@H](C)C(=O)N1CCC[C@H]1C(=O)N1CCC[C@H]1C(=O)N1CCC[C@H]1C(=O)N[C@@H](CO)C(=O)O)[C@@H](C)CC)C(C)C)[C@@H](C)O)[C@@H](C)O)C(C)C` [Agonist P351], the EC50 at human VPAC2 was determined as 0.11 nM. Also, the “Rat Serum Stability (estimated purity in % after 18 hours)” value in series [1] was 18.52%.

Take `CCCCCC(=O)N[C@@H](Cc1c[nH]cn1)C(=O)N[C@@H](CO)C(=O)N[C@@H](CC(=O)O)C(=O)N[C@@H](C)C(=O)N[C@H](C(=O)N[C@@H](Cc1ccccc1)C(=O)N[C@H](C(=O)N[C@@H](CC(=O)O)C(=O)N[C@@H](CC(N)=O)C(=O)N[C@@H](Cc1ccc(O)cc1)C(=O)N[C@H](C(=O)N[C@@H](CCCNC(=N)N)C(=O)N[C@@H](CC(C)C)C(=O)N[C@@H](CCCNC(=N)N)C(=O)N[C@@H](CCCNC(=N)N)C(=O)N[C@@H](CCC(N)=O)C(=O)N[C@H](C(=O)N[C@@H](C)C(=O)N[C@@H](C)C(=O)N[C@@H](CCCCN)C(=O)N[C@@H](CCCNC(=N)N)C(=O)N[C@@H](Cc1ccc(O)cc1)C(=O)N[C@@H](CC(C)C)C(=O)N[C@@H](CCC(N)=O)C(=O)N[C@@H](CO)C(=O)N[C@H](C(=O)N[C@@H](CCCNC(=N)N)C(=O)N[C@@H](CC(N)=O)C(=O)NCC(=O)NCC(=O)N1CCC[C@H]1C(=O)N[C@@H](CO)C(=O)N[C@@H](CO)C(=O)NCC(=O)N[C@@H](C)C(=O)N1CCC[C@H]1C(=O)N1CCC[C@H]1C(=O)N1CCC[C@H]1C(=O)N[C@@H](CO)C(=O)O)[C@@H](C)CC)C(C)C)[C@@H](C)O)[C@@H](C)O)C(C)C` [Agonist P215] (Hexanoyl-HSDAVFTDNYTRLRRQVAAKRYLQSIRNGGPSSGAPPPS-OH; C-terminus assumed): at human VPAC2, the EC50 worked out at 0.09 nM. The “Rat Serum Stability (estimated purity in % after 18 hours)” value in series [1] is reported as 0.08%.

Regarding `CCCCCC(=O)N[C@@H](Cc1c[nH]cn1)C(=O)N[C@@H](CO)C(=O)N[C@@H](CC(=O)O)C(=O)N[C@@H](C)C(=O)N[C@H](C(=O)N[C@@H](Cc1ccccc1)C(=O)N[C@H](C(=O)N[C@@H](CC(=O)O)C(=O)N[C@@H](CC(N)=O)C(=O)N[C@@H](Cc1ccc(O)cc1)C(=O)N[C@H](C(=O)N[C@@H](CCCNC(=N)N)C(=O)N[C@@H](CC(C)C)C(=O)N[C@@H](CCCNC(=N)N)C(=O)N[C@@H](CCCNC(=N)N)C(=O)N[C@@H](CCC(N)=O)C(=O)N[C@H](C(=O)N[C@@H](C)C(=O)N[C@@H](C)C(=O)N[C@@H](CCCNC(=N)N)C(=O)N[C@@H](CCCCN)C(=O)N[C@@H](Cc1ccc(O)cc1)C(=O)N[C@@H](CC(C)C)C(=O)N[C@@H](CCC(N)=O)C(=O)N[C@@H](CO)C(=O)N[C@H](C(=O)N[C@@H](CCCNC(=N)N)C(=O)N[C@@H](CC(N)=O)C(=O)NCC(=O)NCC(=O)N1CCC[C@H]1C(=O)N[C@@H](CO)C(=O)N[C@@H](CO)C(=O)NCC(=O)N[C@@H](C)C(=O)N1CCC[C@H]1C(=O)N1CCC[C@H]1C(=O)N1CCC[C@H]1C(=O)N[C@@H](CO)C(=O)O)[C@@H](C)CC)C(C)C)[C@@H](C)O)[C@@H](C)O)C(C)C` [Agonist P216] (Hexanoyl-HSDAVFTDNYTRLRRQVAARKYLQSIRNGGPSSGAPPPS-OH; C-terminus assumed), the EC50 on human VPAC2 was determined as 0.11 nM. In addition, the “Rat Serum Stability (estimated purity in % after 18 hours)” value in series [1] is on record as 0.06%.

Regarding `CCCCCC(=O)N[C@@H](Cc1c[nH]cn1)C(=O)N[C@@H](CO)C(=O)N[C@@H](CC(=O)O)C(=O)N[C@@H](C)C(=O)N[C@H](C(=O)N[C@@H](Cc1ccccc1)C(=O)N[C@H](C(=O)N[C@@H](CC(=O)O)C(=O)N[C@@H](CC(N)=O)C(=O)N[C@@H](Cc1ccc(O)cc1)C(=O)N[C@H](C(=O)N[C@@H](CCCN)C(=O)N[C@@H](CC(C)C)C(=O)N[C@@H](CCCNC(=N)N)C(=O)NC(C)(C)C(=O)N[C@@H](CCC(N)=O)C(=O)N[C@H](C(=O)N[C@@H](C)C(=O)N[C@@H](C)C(=O)NC(C)(C)C(=O)N[C@@H](CCCCN)C(=O)N[C@@H](Cc1ccc(O)cc1)C(=O)N[C@@H](CC(C)C)C(=O)N[C@@H](CCC(N)=O)C(=O)N[C@@H](CO)C(=O)N[C@H](C(=O)N[C@@H](CCCN)C(=O)N[C@@H](CC(N)=O)C(=O)N[C@@H](CCCN)C(=O)NCC(=O)NCC(=O)N1CCC[C@H]1C(=O)N[C@@H](CO)C(=O)N[C@@H](CO)C(=O)NCC(=O)N[C@@H](C)C(=O)N1CCC[C@H]1C(=O)N1CCC[C@H]1C(=O)N1CCC[C@H]1C(=O)N[C@@H](CO)C(=O)O)[C@@H](C)CC)[C@@H](C)CC)[C@@H](C)O)[C@@H](C)O)C(C)C` [Agonist P365] (Hexanoyl-HSDAVFTDNYT[Orn]LR[Aib]QIAA[Aib]KYLQSI[Orn]N[Orn]GGPSSGAPPPS-OH; C-terminus assumed), at human VPAC2, the EC50 was found to be 0.13 nM. Also, in series [1], the “Rat Serum Stability (estimated purity in % after 18 hours)” value is 91.13%.

In the case of `CCCCCC(=O)N[C@@H](Cc1c[nH]cn1)C(=O)N[C@@H](CO)C(=O)N[C@@H](CC(=O)O)C(=O)N[C@@H](C)C(=O)N[C@H](C(=O)N[C@@H](Cc1ccccc1)C(=O)N[C@H](C(=O)N[C@@H](CC(=O)O)C(=O)N[C@@H](CC(N)=O)C(=O)N[C@@H](Cc1ccc(O)cc1)C(=O)N[C@H](C(=O)N[C@@H](CCCNC(=N)N)C(=O)N[C@@H](CC(C)C)C(=O)N[C@@H](CCCNC(=N)N)C(=O)NC(C)(C)C(=O)N[C@@H](CCC(N)=O)C(=O)N[C@H](C(=O)N[C@@H](C)C(=O)N[C@@H](C)C(=O)NC(C)(C)C(=O)N[C@@H](CCCCN)C(=O)N[C@@H](Cc1ccc(O)cc1)C(=O)N[C@@H](CC(C)C)C(=O)N[C@@H](CCC(N)=O)C(=O)N[C@@H](CO)C(=O)N[C@H](C(=O)N[C@@H](CCCCN)C(=O)NC(C)(C)C(=O)NCC(=O)NCC(=O)N1CCC[C@H]1C(=O)N[C@@H](CO)C(=O)N[C@@H](CO)C(=O)NCC(=O)N[C@@H](C)C(=O)N1CCC[C@H]1C(=O)N1CCC[C@H]1C(=O)N1CCC[C@H]1C(=O)N[C@@H](CO)C(=O)O)[C@@H](C)CC)C(C)C)[C@@H](C)O)[C@@H](C)O)C(C)C` [Agonist P355], the EC50 at human VPAC2 is 0.1 nM. Also, in series [1], the “Rat Serum Stability (estimated purity in % after 18 hours)” value is 35.94%.

The term EC50 denotes the concentration at which the effect is half-maximal.
